# Reference: article PMC11079024, “Identification of a family of species-selective complex I inhibitors as potential anthelmintics” (Nature Communications, 2024)
# Like-named read-outs stand apart in the source and are kept apart here.
# What was measured:
# [1] = biological target: B. taurus (heart) complex I (Bos taurus, UniProt P03887+P17694+P42026); assay: biochemical; type: biochemical
# Summary of the method: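 Complex I activity followed as DCIP reduction (600 nm, 30 s reads, 15 min) with 80 μM NADH and 60 μM decylubiquinone in 25 mM KPi pH 7.5 containing 2 μM antimycin A and 2 mM KCN. Freeze-thawed mouse or bovine heart mitochondria at 0.2 mg/mL; initial-rate percent of solvent control, single-point 100 μM or dose-response.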
# [2] = biological target: C. elegans (N2) complex I (NADH:ubiquinone oxidoreductase) (Caenorhabditis elegans, UniProt P24887+Q93873+Q94360); assay: biochemical; type: biochemical
# C. elegans (N2) complex I (NADH:ubiquinone oxidoreductase), sequence (Q94360 17-199): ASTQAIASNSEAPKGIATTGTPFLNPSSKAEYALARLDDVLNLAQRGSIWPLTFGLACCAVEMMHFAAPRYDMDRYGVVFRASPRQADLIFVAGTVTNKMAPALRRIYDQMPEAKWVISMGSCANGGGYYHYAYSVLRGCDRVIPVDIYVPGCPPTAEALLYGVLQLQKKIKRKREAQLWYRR
# C. elegans (N2) complex I (NADH:ubiquinone oxidoreductase), sequence (P24887 whole entry): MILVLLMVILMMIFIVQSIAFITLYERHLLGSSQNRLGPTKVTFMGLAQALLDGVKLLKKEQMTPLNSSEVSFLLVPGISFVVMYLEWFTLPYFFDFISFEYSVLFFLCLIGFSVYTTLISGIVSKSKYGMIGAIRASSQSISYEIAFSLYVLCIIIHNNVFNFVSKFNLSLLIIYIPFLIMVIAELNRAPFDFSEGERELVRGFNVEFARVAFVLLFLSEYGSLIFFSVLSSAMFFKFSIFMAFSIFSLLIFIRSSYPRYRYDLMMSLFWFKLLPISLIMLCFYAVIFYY
# C. elegans (N2) complex I (NADH:ubiquinone oxidoreductase), sequence (Q93873 31-482): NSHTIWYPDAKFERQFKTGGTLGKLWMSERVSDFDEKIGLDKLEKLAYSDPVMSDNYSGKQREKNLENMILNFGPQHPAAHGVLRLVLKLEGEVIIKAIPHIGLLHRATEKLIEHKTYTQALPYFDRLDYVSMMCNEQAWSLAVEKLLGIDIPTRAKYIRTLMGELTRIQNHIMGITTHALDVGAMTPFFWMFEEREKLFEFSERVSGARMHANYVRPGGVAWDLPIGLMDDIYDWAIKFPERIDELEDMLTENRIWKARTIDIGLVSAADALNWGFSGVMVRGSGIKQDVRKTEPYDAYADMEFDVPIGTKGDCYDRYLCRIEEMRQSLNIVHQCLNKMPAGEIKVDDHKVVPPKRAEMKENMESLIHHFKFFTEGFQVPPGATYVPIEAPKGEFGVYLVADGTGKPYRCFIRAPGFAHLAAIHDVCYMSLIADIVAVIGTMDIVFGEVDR
# Summary of the method: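 Activity expressed as percent of solvent control. Complex I rate came from DCIP reduction at 600 nm (initial linear slope, 15 min) with NADH and decylubiquinone as substrates, plus antimycin A and KCN, in pH 7.5 KPi/BSA buffer. Isolated, thrice freeze-thawed mitochondria used at 0.2 mg/mL.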
# B. taurus (heart) complex I, sequence (P03887 whole entry): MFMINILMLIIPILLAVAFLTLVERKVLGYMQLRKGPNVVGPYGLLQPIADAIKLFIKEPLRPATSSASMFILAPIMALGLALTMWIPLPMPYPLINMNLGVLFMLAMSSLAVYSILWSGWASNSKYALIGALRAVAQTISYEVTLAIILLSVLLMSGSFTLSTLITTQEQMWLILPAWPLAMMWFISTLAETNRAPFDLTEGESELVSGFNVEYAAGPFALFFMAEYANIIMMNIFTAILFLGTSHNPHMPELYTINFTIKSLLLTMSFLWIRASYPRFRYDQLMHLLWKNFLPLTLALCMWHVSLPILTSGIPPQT
# B. taurus (heart) complex I, sequence (P17694 34-463): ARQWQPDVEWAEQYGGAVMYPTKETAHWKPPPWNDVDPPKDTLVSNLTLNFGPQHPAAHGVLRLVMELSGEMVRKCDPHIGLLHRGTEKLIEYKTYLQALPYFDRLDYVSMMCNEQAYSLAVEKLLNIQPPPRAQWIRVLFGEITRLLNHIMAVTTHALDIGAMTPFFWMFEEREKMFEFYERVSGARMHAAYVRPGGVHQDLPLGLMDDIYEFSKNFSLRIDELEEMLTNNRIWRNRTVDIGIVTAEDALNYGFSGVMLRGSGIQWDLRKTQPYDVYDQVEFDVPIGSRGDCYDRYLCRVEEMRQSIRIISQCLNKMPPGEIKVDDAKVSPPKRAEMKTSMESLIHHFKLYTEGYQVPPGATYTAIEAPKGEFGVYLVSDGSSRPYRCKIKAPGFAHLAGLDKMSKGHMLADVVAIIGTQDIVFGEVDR
# B. taurus (heart) complex I, sequence (P42026 38-216): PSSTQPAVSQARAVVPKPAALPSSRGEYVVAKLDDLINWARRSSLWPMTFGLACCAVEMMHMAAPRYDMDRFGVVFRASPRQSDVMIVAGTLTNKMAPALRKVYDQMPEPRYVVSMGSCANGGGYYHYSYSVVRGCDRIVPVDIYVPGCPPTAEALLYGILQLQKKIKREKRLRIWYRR
smiles,measurement,setting,value
Nc1nc2ccccc2n1Cc1ccc(Cl)cc1 [Compound 5652765],IC50,"[1]; B. taurus heart mitochondria, estimated from fitted dose-response curves, read-out: B. taurus Complex I IC50",2270 nM
same,activity at 0.0001 µM,"[1]; Dose 0.0001 µM, read-out: B. taurus mitochondrial complex I activity",93.5%
same,activity at 0.0005 µM,"[1]; Dose 0.0005 µM, read-out: B. taurus mitochondrial complex I activity",96.1%
same,activity at 0.001 µM,"[1]; Dose 0.001 µM, read-out: B. taurus mitochondrial complex I activity",91%
same,activity at 0.0025 µM,"[1]; Dose 0.0025 µM, read-out: B. taurus mitochondrial complex I activity",95.6%
same,activity at 0.005 µM,"[1]; Dose 0.005 µM, read-out: B. taurus mitochondrial complex I activity",88.8%
same,activity at 0.013 µM,"[1]; Dose 0.013 µM, read-out: B. taurus mitochondrial complex I activity",88.3%
same,activity at 0.025 µM,"[1]; Dose 0.025 µM, read-out: B. taurus mitochondrial complex I activity",83.3%
same,activity at 0.063 µM,"[1]; Dose 0.063 µM, read-out: B. taurus mitochondrial complex I activity",87.9%
same,activity at 0.125 µM,"[1]; Dose 0.125 µM, read-out: B. taurus mitochondrial complex I activity",79.5%
same,activity at 0.313 µM,"[1]; Dose 0.313 µM, read-out: B. taurus mitochondrial complex I activity",76.3%
same,activity at 0.625 µM,"[1]; Dose 0.625 µM, read-out: B. taurus mitochondrial complex I activity",72.5%
same,activity at 1.5 µM,"[1]; Dose 1.5 µM, read-out: B. taurus mitochondrial complex I activity",54.3%
same,activity at 3 µM,"[1]; Dose 3 µM, read-out: B. taurus mitochondrial complex I activity",36.4%
same,activity at 15 µM,"[1]; Dose 15 µM, read-out: B. taurus mitochondrial complex I activity",4.61%
same,activity at 37.5 µM,"[1]; Dose 37.5 µM, read-out: B. taurus mitochondrial complex I activity",0.42%
same,activity at 75 µM,"[1]; Dose 75 µM, read-out: B. taurus mitochondrial complex I activity",0.3%
same,Log IC50 B. taurus complex I,"[1]; log10 of IC50 in µM, B. taurus mitochondria",0.36 µM
same,activity at 0.0001 µM,"[2]; Dose 0.0001 µM, read-out: C. elegans mitochondrial complex I activity",86.1%
same,activity at 0.0005 µM,"[2]; Dose 0.0005 µM, read-out: C. elegans mitochondrial complex I activity",92.1%
same,activity at 0.001 µM,"[2]; Dose 0.001 µM, read-out: C. elegans mitochondrial complex I activity",93.5%
same,activity at 0.0025 µM,"[2]; Dose 0.0025 µM, read-out: C. elegans mitochondrial complex I activity",93.8%
same,activity at 0.005 µM,"[2]; Dose 0.005 µM, read-out: C. elegans mitochondrial complex I activity",90.5%
same,activity at 0.013 µM,"[2]; Dose 0.013 µM, read-out: C. elegans mitochondrial complex I activity",90.4%
same,activity at 0.025 µM,"[2]; Dose 0.025 µM, read-out: C. elegans mitochondrial complex I activity",78.8%
same,activity at 0.063 µM,"[2]; Dose 0.063 µM, read-out: C. elegans mitochondrial complex I activity",76.6%
same,activity at 0.125 µM,"[2]; Dose 0.125 µM, read-out: C. elegans mitochondrial complex I activity",72.5%
same,activity at 0.313 µM,"[2]; Dose 0.313 µM, read-out: C. elegans mitochondrial complex I activity",39.7%
same,activity at 0.625 µM,"[2]; Dose 0.625 µM, read-out: C. elegans mitochondrial complex I activity",49.3%
same,activity at 1.5 µM,"[2]; Dose 1.5 µM, read-out: C. elegans mitochondrial complex I activity",25.2%
same,activity at 3 µM,"[2]; Dose 3 µM, read-out: C. elegans mitochondrial complex I activity",11.5%
same,activity at 15 µM,"[2]; Dose 15 µM, read-out: C. elegans mitochondrial complex I activity",0.44%
same,activity at 37.5 µM,"[2]; Dose 37.5 µM, read-out: C. elegans mitochondrial complex I activity",0.7%
same,activity at 75 µM,"[2]; Dose 75 µM, read-out: C. elegans mitochondrial complex I activity",0.75%
same,IC50,"[2]; in vitro complex I dose response on C. elegans mitochondria, average of at least two biological replicates, fit in R (DRC), read-out: IC50 C. elegans complex I",470 nM
same,Log IC50 C. elegans complex I,"[2]; log10 of IC50 in µM, C. elegans mitochondria",-0.33 µM
same,IC50,"[2]; wild-type (N2) mitochondria, read-out: C. elegans Complex I IC50",470 nM
same,IC50,"[2]; wild-type C. elegans mitochondria, estimated from fitted dose-response curves, read-out: C. elegans Complex I IC50",470 nM
